{"source": "paper PMC12147761", "about": "(Journal of medicinal chemistry, 2025)", "key": {"CDK4/CycD1": {"molecular_target": "T1, CDK4/CycD1 (Homo sapiens, UniProt P11802)", "T1 construct": "ICE Bioscience Inc. (assay service)", "assay": "CDK family panel, ADP-Glo", "format": "biochemical", "experimental": "(§2) All the kinase activity were performed using an ADP-Glo kinase assay by ICE Bioscience Inc. (Beijing, China). Kinome selectivity profiles (KINOMEscan profiling) and Kd detection were performed by Eurofins DiscoveryX Corporation (San Diego, CA, USA)."}, "VCaP cells [1]": {"tested_on": "VCaP cells", "assay": "Cell apoptosis assay by flow cytometry", "format": "cell-based, human", "settings": "YJZ5118 at 100 nM", "method": "Cells were seeded in six-well plates and incubated for 24 h at 37 °C and 5% CO2. Cells were then treated with the indicated concentrations of the tested compounds for 48 h. The treated cells then were collected, centrifuged and washed twice by cold PBS. […] Cell samples were analyzed with flow cytometry (SH800S cell sorter, Sony Biotechnology)."}, "CDK2/CycE1": {"molecular_target": "T2, CDK2/CycE1 (Homo sapiens, UniProt P24941)", "T2 construct": "ICE Bioscience Inc. (assay service)", "assay": "CDK family panel, ADP-Glo", "format": "biochemical", "experimental": "(§3) All the kinase activity were performed using an ADP-Glo kinase assay by ICE Bioscience Inc. (Beijing, China)."}, "CDK19/CycC": {"molecular_target": "T3, CDK19/CycC (Homo sapiens, UniProt Q9BWU1)", "T3 construct": "ICE Bioscience Inc. (assay service)", "assay": "CDK family panel, ADP-Glo", "format": "biochemical", "experimental": "as §3"}, "CDK18/CycY": {"molecular_target": "T4, CDK18/CycY (Homo sapiens, UniProt Q07002)", "T4 construct": "ICE Bioscience Inc. (assay service)", "T4 sequence (Q07002 whole entry, species assumed)": "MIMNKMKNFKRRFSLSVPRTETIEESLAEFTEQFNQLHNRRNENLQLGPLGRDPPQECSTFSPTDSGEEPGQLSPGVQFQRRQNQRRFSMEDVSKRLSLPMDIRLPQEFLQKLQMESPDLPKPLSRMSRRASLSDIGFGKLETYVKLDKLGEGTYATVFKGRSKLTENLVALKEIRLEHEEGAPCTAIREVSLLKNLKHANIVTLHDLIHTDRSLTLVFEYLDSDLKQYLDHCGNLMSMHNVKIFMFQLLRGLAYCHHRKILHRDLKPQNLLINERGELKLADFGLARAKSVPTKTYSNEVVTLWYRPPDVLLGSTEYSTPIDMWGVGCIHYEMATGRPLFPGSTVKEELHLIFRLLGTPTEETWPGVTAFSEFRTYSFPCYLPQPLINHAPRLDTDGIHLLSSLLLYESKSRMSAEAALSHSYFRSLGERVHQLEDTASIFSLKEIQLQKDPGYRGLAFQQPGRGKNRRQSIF", "T4 sequence (Q8ND76 whole entry partner, species assumed)": "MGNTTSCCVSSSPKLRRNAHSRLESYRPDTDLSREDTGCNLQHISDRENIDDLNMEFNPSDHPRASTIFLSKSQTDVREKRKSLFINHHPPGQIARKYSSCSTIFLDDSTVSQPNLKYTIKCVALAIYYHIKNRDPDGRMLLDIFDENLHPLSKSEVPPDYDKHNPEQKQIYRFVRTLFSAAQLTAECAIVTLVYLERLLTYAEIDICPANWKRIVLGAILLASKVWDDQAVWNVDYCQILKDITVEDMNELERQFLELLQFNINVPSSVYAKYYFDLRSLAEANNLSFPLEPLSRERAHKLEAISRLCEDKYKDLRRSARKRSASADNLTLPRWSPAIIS", "assay": "CDK family panel, ADP-Glo", "format": "biochemical", "experimental": "as §2"}, "CDK9/CycK": {"molecular_target": "T5, CDK9/CycK (Homo sapiens, UniProt P50750)", "T5 construct": "ICE Bioscience Inc. (assay service)", "assay": "CDK family panel, ADP-Glo", "format": "biochemical", "experimental": "as §3"}, "[2]": {"tested_on": "VCaP prostate cancer cells", "assay": "Cell proliferation assay (CellTiter-Glo), VCaP", "format": "cell-based, human", "settings": "cell growth inhibition, 5 days, CellTiter-Glo", "method": "The kinase inhibitory activities of the compounds against CDK12 and CDK13 were preliminarily evaluated using the ADP-Glo kinase assay. Cell growth inhibition was determined in VCaP prostate cancer cells, which were characterized as being sensitive to CDK12/13 inhibition.[14]\n(§1) Cells were seeded in 96-well plates and incubated at 37 °C and 5% CO2. After overnight incubation, serial dilutions of tested compounds were added to the plate. The assay was tested with Cell Titer-Glo (Promega) after 5 days. The luminescence signal was detected by the Infinite M1000 Pro plate reader (Tecan), and the IC50 values were calculated by GraphPad Prism 10."}, "[3]": {"assay": "Pharmacokinetics study in mice", "format": "in vivo, ICR mice", "settings": "for AUC(0-t) / Cmax / Tmax / clearance / half-life / bioavailability: both sexes, ICR, mouse, plasma"}, "[4]": {"tested_on": "normal and non-neoplastic cells", "assay": "Cell viability panel", "format": "cell-based, human", "settings": "5 days of treatment, compared with sensitive cancer cells", "method": "as §1"}, "CDK3/CycC": {"molecular_target": "T6, CDK3/CycC (Homo sapiens, UniProt Q00526)", "T6 construct": "ICE Bioscience Inc. (assay service)", "T6 sequence (Q00526 whole entry, species assumed)": "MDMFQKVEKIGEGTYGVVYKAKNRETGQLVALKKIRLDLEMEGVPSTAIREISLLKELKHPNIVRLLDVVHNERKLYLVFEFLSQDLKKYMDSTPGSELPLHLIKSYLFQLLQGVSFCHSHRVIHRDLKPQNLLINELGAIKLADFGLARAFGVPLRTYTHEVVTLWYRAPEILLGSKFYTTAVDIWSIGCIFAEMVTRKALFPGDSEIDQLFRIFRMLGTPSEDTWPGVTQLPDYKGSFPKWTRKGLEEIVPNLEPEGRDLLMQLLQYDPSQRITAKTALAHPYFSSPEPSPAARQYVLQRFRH", "T6 sequence (P24863 whole entry partner, species assumed)": "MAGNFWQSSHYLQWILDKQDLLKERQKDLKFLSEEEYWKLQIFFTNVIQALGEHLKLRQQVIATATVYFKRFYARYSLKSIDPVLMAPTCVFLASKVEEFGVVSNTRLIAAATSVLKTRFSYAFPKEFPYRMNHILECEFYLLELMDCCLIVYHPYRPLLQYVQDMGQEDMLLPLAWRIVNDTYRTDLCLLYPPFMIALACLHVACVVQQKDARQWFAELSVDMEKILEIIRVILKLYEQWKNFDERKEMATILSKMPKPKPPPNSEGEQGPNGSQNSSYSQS", "assay": "CDK family panel, ADP-Glo", "format": "biochemical", "experimental": "as §3"}, "CHLA10": {"tested_on": "CHLA10", "assay": "Cell viability panel", "format": "cell-based", "settings": "Homo sapiens, 120 h; Ewing's sarcoma cells, 5 days of treatment", "method": "as §1"}, "MFM223": {"tested_on": "MFM223", "assay": "Cell viability panel", "format": "cell-based", "settings": "Homo sapiens, MFM-223, 120 h; breast cancer cells, 5 days of treatment", "method": "as §1"}, "CB-AGPN": {"tested_on": "CB-AGPN", "assay": "Cell viability panel", "format": "cell-based", "settings": "Homo sapiens, 120 h; Ewing's sarcoma cells, 5 days of treatment", "method": "as §1"}, "MDA-MD-468": {"tested_on": "MDA-MD-468", "assay": "Cell viability panel", "format": "cell-based", "settings": "Homo sapiens, 120 h; breast cancer cells, 5 days of treatment", "method": "as §1"}, "DU145": {"tested_on": "DU145", "assay": "Cell viability panel", "format": "cell-based", "settings": "Homo sapiens, DU-145, 120 h; prostate cancer cells, 5 days of treatment", "method": "as §1"}, "SK-BR-3": {"tested_on": "SK-BR-3", "assay": "Cell viability panel", "format": "cell-based", "settings": "Homo sapiens, SK-BR-3, 120 h; breast cancer cells, 5 days of treatment", "method": "as §1"}, "CDK1/CycA2": {"molecular_target": "T7, CDK1/CycA2 (Homo sapiens, UniProt P06493)", "T7 construct": "ICE Bioscience Inc. (assay service)", "T7 sequence (P06493 whole entry, species assumed)": "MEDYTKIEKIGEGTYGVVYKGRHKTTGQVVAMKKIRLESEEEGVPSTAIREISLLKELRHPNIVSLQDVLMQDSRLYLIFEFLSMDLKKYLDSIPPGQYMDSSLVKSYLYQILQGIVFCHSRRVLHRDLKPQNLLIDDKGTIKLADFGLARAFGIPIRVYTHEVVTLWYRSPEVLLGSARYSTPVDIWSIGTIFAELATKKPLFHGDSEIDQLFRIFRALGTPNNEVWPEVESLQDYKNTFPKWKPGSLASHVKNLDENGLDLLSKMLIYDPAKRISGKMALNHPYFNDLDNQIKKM", "T7 sequence (P20248 whole entry partner, species assumed)": "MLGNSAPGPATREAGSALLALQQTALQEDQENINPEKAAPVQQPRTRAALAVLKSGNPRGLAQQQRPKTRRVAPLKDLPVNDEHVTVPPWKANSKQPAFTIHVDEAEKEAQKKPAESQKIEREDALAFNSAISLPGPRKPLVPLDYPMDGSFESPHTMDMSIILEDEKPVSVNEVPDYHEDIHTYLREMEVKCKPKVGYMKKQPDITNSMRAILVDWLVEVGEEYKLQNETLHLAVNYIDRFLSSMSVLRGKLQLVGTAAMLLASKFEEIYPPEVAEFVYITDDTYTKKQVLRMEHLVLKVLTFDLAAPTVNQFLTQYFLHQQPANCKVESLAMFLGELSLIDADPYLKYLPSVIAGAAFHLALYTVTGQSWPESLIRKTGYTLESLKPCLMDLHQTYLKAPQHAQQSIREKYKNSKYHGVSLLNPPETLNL", "assay": "CDK family panel, ADP-Glo", "format": "biochemical", "experimental": "as §3"}, "TAOK3": {"molecular_target": "T8, TAOK3 (Homo sapiens, UniProt Q9H2K8)", "T8 construct": "ICE Bioscience Inc. (assay service)", "T8 sequence (Q9H2K8 whole entry, species assumed)": "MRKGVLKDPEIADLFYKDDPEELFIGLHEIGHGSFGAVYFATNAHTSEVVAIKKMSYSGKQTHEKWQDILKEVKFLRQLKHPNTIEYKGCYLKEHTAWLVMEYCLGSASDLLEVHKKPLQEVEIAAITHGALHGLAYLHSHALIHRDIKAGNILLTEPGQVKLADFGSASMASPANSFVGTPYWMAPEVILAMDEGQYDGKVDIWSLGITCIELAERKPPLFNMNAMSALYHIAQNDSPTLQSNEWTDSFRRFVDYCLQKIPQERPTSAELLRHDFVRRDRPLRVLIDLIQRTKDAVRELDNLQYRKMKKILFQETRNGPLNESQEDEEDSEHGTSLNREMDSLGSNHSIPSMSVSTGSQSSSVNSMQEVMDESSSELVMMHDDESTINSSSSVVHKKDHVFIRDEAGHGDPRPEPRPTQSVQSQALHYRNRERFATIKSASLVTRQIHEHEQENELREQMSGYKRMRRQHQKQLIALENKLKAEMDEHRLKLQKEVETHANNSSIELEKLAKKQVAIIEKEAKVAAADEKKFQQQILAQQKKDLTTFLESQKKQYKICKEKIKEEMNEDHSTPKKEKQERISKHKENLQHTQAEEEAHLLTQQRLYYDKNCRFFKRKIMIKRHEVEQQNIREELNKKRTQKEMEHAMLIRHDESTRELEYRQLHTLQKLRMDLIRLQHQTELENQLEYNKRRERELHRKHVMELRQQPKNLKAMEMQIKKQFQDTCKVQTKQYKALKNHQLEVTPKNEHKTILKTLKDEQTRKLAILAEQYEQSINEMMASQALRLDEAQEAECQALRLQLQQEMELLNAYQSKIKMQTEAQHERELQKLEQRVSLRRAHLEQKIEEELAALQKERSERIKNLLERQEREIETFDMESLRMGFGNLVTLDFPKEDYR", "assay": "ADP-Glo assay, TAOK3", "format": "biochemical", "settings": "read-out: IC50 against TAOK3"}, "CDK16/CycY": {"molecular_target": "T9, CDK16/CycY (Homo sapiens, UniProt Q00536)", "T9 construct": "ICE Bioscience Inc. (assay service)", "assay": "CDK family panel, ADP-Glo", "format": "biochemical", "experimental": "as §3"}, "CDK7/CycH/MAT1": {"molecular_target": "T10, CDK7/CycH/MAT1 (Homo sapiens, UniProt P50613)", "T10 construct": "ICE Bioscience Inc. (assay service)", "T10 sequence (P50613 whole entry, species assumed)": "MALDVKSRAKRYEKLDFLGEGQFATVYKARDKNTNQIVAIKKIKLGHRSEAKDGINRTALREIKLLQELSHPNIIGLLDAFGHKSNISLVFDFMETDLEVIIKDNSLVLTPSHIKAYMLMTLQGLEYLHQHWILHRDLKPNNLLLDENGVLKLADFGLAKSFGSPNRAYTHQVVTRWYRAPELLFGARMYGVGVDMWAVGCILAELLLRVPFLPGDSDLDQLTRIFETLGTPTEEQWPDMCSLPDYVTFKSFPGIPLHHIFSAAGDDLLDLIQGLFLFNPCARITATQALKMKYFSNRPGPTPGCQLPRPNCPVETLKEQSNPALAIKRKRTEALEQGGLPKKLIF", "T10 sequence (P51946 whole entry partner, species assumed)": "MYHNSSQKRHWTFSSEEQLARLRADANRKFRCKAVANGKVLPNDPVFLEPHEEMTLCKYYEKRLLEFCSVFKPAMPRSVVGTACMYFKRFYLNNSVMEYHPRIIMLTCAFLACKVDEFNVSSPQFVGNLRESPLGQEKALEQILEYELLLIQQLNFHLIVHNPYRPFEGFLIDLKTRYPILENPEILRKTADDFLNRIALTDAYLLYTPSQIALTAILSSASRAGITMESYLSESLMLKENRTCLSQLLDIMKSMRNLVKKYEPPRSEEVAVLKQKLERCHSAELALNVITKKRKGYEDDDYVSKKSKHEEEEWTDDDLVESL", "T10 sequence (P51948 whole entry partner, species assumed)": "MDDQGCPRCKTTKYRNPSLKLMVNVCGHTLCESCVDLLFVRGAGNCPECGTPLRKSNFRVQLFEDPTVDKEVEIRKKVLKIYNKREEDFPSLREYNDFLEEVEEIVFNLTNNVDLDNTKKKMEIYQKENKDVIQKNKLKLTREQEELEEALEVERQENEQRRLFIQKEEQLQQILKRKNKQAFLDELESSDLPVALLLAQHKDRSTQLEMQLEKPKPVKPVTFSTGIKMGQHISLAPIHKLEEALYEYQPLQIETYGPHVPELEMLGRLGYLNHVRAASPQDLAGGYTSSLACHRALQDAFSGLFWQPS", "assay": "CDK family panel, ADP-Glo", "format": "biochemical", "experimental": "as §3"}, "CDK8/CycC": {"molecular_target": "T11, CDK8/CycC (Homo sapiens, UniProt P49336)", "T11 construct": "ICE Bioscience Inc. (assay service)", "assay": "CDK family panel, ADP-Glo", "format": "biochemical", "experimental": "as §3"}, "CDK6/CycD1": {"molecular_target": "T12, CDK6/CycD1 (Homo sapiens, UniProt Q00534)", "T12 construct": "ICE Bioscience Inc. (assay service)", "T12 sequence (Q00534 whole entry, species assumed)": "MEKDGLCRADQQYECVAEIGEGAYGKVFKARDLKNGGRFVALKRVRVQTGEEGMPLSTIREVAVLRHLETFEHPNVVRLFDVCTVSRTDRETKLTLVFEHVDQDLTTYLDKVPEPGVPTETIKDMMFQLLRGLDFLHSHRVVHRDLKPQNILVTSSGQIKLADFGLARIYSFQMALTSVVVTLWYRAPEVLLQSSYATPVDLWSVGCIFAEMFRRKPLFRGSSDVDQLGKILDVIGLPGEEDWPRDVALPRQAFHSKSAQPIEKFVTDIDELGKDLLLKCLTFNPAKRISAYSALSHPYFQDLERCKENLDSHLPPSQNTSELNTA", "T12 sequence (P24385 whole entry partner, species assumed)": "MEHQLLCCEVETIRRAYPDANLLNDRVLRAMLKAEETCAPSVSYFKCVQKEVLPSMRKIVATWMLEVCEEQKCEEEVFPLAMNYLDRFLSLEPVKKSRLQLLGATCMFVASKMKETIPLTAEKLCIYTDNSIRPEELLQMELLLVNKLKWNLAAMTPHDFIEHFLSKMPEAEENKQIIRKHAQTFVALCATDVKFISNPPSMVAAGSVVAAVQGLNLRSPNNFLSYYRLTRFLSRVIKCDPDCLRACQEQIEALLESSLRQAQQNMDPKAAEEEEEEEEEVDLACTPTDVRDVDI", "assay": "CDK family panel, ADP-Glo", "format": "biochemical", "experimental": "as §2"}, "VCaP cells [5]": {"tested_on": "VCaP cells", "assay": "Washout experiment, cell growth", "format": "cell-based, human", "settings": "VCaP cells treated 6 h, compound removed, 5 days in compound-free media", "method": "The previously reported reversible inhibitor 10 was included for comparison. VCaP cells were treated with the compounds for 6 h, after which the compounds were removed, and the cells were cultured in compound-free media for 5 days."}, "VCaP CRPC xenograft": {"tested_on": "VCaP CRPC xenograft", "assay": "In vivo efficacy, VCaP CRPC mouse model", "design": "species or system mice", "settings": "YJZ5118 i.p., q.d., uprosertib p.o., 5x/week, 27 days, compared to vehicle", "method": "All the animal experiments were performed under an approved animal protocol (Protocol ID: PRO00010006, PI, Arul Chinnaiyan) by the Institutional Animal Care & Use Committee of the University of Michigan. Six- to eight-week-old NSG (Jackson Laboratory) or CB17SCID female (Charles River Laboratory) mice were in a regular SPF housing room prior to cell injection. Briefly, 5 ×10^6 cells of VCaP CRPC were injected […] of NSG or CB17SCID mice, respectively. After tumor size reached approximately 200–400 mm^3, animals were subjected to drug treatment. […] Vehicle consisted of 20% PEG400, 6% Cremophor EL, and 74% PBS solution. Tumors were collected at the end of the experiment for Western blot analysis."}, "[6]": {"settings": "intravenous, i.v. 2.5 mg/kg (Table S5, intraperitoneal study)"}}, "note": "pIC50: −log10 of the molar value. Read-outs that look alike come from different tables or passages of the source."}
{"smiles": "C=CC(=O)Nc1cc(N(C(=O)NCc2ccccc2)[C@H]2CC[C@H](Nc3ccc(C#N)cn3)CC2)ccc1N1CCC(N(C)C)CC1", "note": "[YJZ5118, N-(5-(3-benzyl-1-((1r,4r)-4-((5-cyanopyridin-2-yl)amino)cyclohexyl)ureido)-2-(4-(dimethylamino)piperidin-1-yl)phenyl)acrylamide]", "values": [{"measurement": "IC50", "setting": "CDK4/CycD1", "value": 3390, "unit": "nM"}, {"measurement": "apoptosis rate", "setting": "VCaP cells [1]", "value": 28.5, "unit": "%"}, {"measurement": "IC50", "setting": "CDK2/CycE1", "value": "> 10000", "unit": "nM"}, {"measurement": "IC50", "setting": "CDK19/CycC", "value": "> 10000", "unit": "nM"}, {"measurement": "IC50", "setting": "CDK18/CycY", "value": "> 10000", "unit": "nM"}, {"measurement": "IC50", "setting": "CDK9/CycK", "value": 7160, "unit": "nM"}, {"measurement": "IC50", "setting": "[2]; Homo sapiens, VCaP, 120 h", "value": "< 40", "unit": "nM"}, {"measurement": "IC50", "setting": "[2]; listed as 14k (YJZ5118)", "value": 23.7, "unit": "nM"}, {"measurement": "AUC(0-t)", "setting": "[3]; [6]", "value": 1660, "unit": "ng·h/mL"}, {"measurement": "Cmax", "setting": "[3]; [6]", "value": 3310, "unit": "ng/mL"}, {"measurement": "Tmax", "setting": "[3]; [6]", "value": 0.08, "unit": "h"}, {"measurement": "clearance", "setting": "[3]; [6]", "value": 25.6, "unit": "mL/min/kg"}, {"measurement": "half-life", "setting": "[3]; [6]", "value": 1.21, "unit": "h"}, {"measurement": "bioavailability", "setting": "[3]; ip, 2.5 mg/kg, i.p. 2.5 mg/kg, read-out: F", "value": 113, "unit": "%"}, {"measurement": "AUC(0-t)", "setting": "[3]; ip, i.p. 2.5 mg/kg", "value": 1860, "unit": "ng·h/mL"}, {"measurement": "Cmax", "setting": "[3]; ip, i.p. 2.5 mg/kg", "value": 1580, "unit": "ng/mL"}, {"measurement": "Tmax", "setting": "[3]; ip, i.p. 2.5 mg/kg", "value": 0.33, "unit": "h"}, {"measurement": "half-life", "setting": "[3]; ip, i.p. 2.5 mg/kg", "value": 1.46, "unit": "h"}, {"measurement": "clearance", "setting": "[3]; iv, i.v. 2 mg/kg", "value": 28.3, "unit": "mL/min/kg"}, {"measurement": "AUC(0-t)", "setting": "[3]; iv, i.v. 2.5 mg/kg (Figure 3A)", "value": 1580, "unit": "ng·h/mL"}, {"measurement": "Cmax", "setting": "[3]; iv, i.v. 2.5 mg/kg (Figure 3A)", "value": 2810, "unit": "ng/mL"}, {"measurement": "Tmax", "setting": "[3]; iv, i.v. 2.5 mg/kg (Figure 3A)", "value": 0.08, "unit": "h"}, {"measurement": "clearance", "setting": "[3]; iv, i.v. 2.5 mg/kg (Figure 3A)", "value": 28.3, "unit": "mL/min/kg"}, {"measurement": "half-life", "setting": "[3]; iv, i.v. 2.5 mg/kg (Figure 3A)", "value": 1.29, "unit": "h"}, {"measurement": "bioavailability", "setting": "[3]; po, 10 mg/kg, p.o. 10 mg/kg, read-out: F (oral bioavailability)", "value": 35.5, "unit": "%"}, {"measurement": "AUC(0-t)", "setting": "[3]; po, p.o. 10 mg/kg", "value": 2240, "unit": "ng·h/mL"}, {"measurement": "Cmax", "setting": "[3]; po, p.o. 10 mg/kg", "value": 639, "unit": "ng/mL"}, {"measurement": "Tmax", "setting": "[3]; po, p.o. 10 mg/kg", "value": 1.5, "unit": "h"}, {"measurement": "half-life", "setting": "[3]; po, p.o. 10 mg/kg", "value": 2.32, "unit": "h"}, {"measurement": "clearance rate, times lower than that of 14h", "setting": "[3]; i.v.", "value": 4, "unit": "time"}, {"measurement": "F (oral bioavailability)", "setting": "[3]; p.o. 10 mg/kg, 10 mg/kg", "value": 35.5, "unit": "%"}, {"measurement": "sensitivity of normal and non-neoplastic cells", "setting": "[4]", "value": "much lower sensitive"}, {"measurement": "IC50", "setting": "CDK3/CycC", "value": "> 10000", "unit": "nM"}, {"measurement": "pIC50", "setting": "CHLA10", "value": "> 7.40"}, {"measurement": "pIC50", "setting": "MFM223", "value": "> 7.40"}, {"measurement": "pIC50", "setting": "CB-AGPN", "value": "> 7.40"}, {"measurement": "pIC50", "setting": "MDA-MD-468", "value": "> 7.40"}, {"measurement": "pIC50", "setting": "DU145", "value": "> 7.40"}, {"measurement": "pIC50", "setting": "SK-BR-3", "value": "> 7.40"}, {"measurement": "IC50", "setting": "CDK1/CycA2", "value": "> 10000", "unit": "nM"}, {"measurement": "pIC50", "setting": "TAOK3", "value": "< 5.00"}, {"measurement": "IC50", "setting": "CDK16/CycY", "value": "> 10000", "unit": "nM"}, {"measurement": "IC50", "setting": "CDK7/CycH/MAT1", "value": 2260, "unit": "nM"}, {"measurement": "IC50", "setting": "CDK8/CycC", "value": "> 10000", "unit": "nM"}, {"measurement": "IC50", "setting": "CDK6/CycD1", "value": 4480, "unit": "nM"}, {"measurement": "cell growth inhibitory effect after washout", "setting": "VCaP cells [5]", "value": "maintained potent antiproliferative activity"}, {"measurement": "tumor growth", "setting": "VCaP CRPC xenograft", "value": "significant reduction in tumor growth"}]}
